# How the values were obtained:
# Assay type in all cases: in vivo
# Echinochloa crus-galli [1] = test: Herbicidal action pre-emergence (greenhouse pot trial); settings: application rate 320 g/ha, scored after about 3 weeks
# In short: (§1)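 Pre-emergence soil-surface spray, 320 g/ha or lower, WP/EC formulations in water with 0.5% additive, 600 L/ha. Greenhouse, ~3 wk. Visual % efficacy vs untreated controls (100% = plants dead, 0% = like control).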
# Abutilon theophrasti [2] = test: as above; settings: application rate 320 g/ha, scored after about 3 weeks
# In short: as §1
# Amaranthus retroflexus [3] = test: as above; settings: application rate 320 g/ha, scored after about 3 weeks
# In short: as §1
# Cyperus esculentus = test: as above; settings: application rate 320 g/ha
# In short: as §1
# Setaria viridis [4] = test: as above; settings: application rate 320 g/ha, scored after about 3 weeks
# In short: as §1
# Avena fatua [5] = test: as above; settings: application rate 320 g/ha
# In short: as §1
# Hordeum murinum [6] = test: as above; settings: application rate 320 g/ha
# In short: as §1
# Matricaria inodora [7] = test: as above; settings: application rate 320 g/ha, scored after about 3 weeks
# In short: as §1
# Pharbitis purpurea [8] = test: as above; settings: application rate 320 g/ha
# In short: as §1
# Alopecurus myosuroides [9] = test: as above; settings: application rate 320 g/ha, scored after about 3 weeks
# In short: as §1
# Lolium rigidum [10] = test: as above; settings: application rate 320 g/ha
# In short: as §1
# Stellaria media [11] = test: as above; settings: application rate 320 g/ha, scored after about 3 weeks
# In short: as §1
# Viola tricolor [12] = test: as above; settings: application rate 320 g/ha, scored after about 3 weeks
# In short: as §1
# Zea mays [13] = test: Crop compatibility post-emergence (greenhouse pot trial)
# In short: (§2)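 Visual % rating about 3 weeks post-treatment against untreated plants (100% dead, 0% unaffected). Post-emergence spray of aqueous WP/EC preparations with 0.5% additive at 600 L/ha water, applied at one-leaf stage to greenhouse pot-grown crops in sandy loam.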
# Oryza sativa = test: as above
# In short: as §2
# Triticum aestivum = test: as above
# In short: as §2
# Zea mays [14] = test: Crop compatibility pre-emergence (greenhouse pot trial); settings: effect vs untreated controls
# In short: (§3)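 Crop plants were sown and covered with soil, then the soil surface was treated with formulated compound as an aqueous suspension or emulsion containing 0.5% additive, applied at a water rate equivalent to 600 L/ha. Damage was rated visually in percent relative to untreated pots after roughly three weeks in the greenhouse.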
# Echinochloa crus-galli [15] = test: Herbicidal action post-emergence (greenhouse pot trial); settings: application rate 80 g/ha, scored visually after about 3 weeks vs untreated controls
# In short: (§4)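 Post-emergence spray at one-leaf stage (2–3 wk after sowing, sandy loam, greenhouse); WP/EC in water + 0.5% additive; 600 L/ha; rate 80 g/ha or less. Visual % efficacy at ~3 wk vs untreated (100 = dead).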
# Abutilon theophrasti [16] = test: as above; settings: application rate 80 g/ha, scored visually after about 3 weeks vs untreated controls
# In short: as §4
# Amaranthus retroflexus [17] = test: as above; settings: application rate 80 g/ha, scored visually after about 3 weeks vs untreated controls
# In short: as §4
# Veronica persica [18] = test: as above; settings: application rate 80 g/ha
# In short: as §4
# Setaria viridis [19] = test: as above; settings: application rate 80 g/ha, scored visually after about 3 weeks vs untreated controls
# In short: as §4
# Avena fatua [20] = test: as above; settings: application rate 80 g/ha, scored visually after about 3 weeks vs untreated controls
# In short: as §4
# Polygonum convolvulus = test: as above; settings: application rate 80 g/ha, scored visually after about 3 weeks vs untreated controls
# In short: as §4
# Hordeum murinum [21] = test: as above; settings: application rate 80 g/ha, scored visually after about 3 weeks vs untreated controls
# In short: as §4
# Matricaria inodora [22] = test: as above; settings: application rate 80 g/ha, scored visually after about 3 weeks vs untreated controls
# In short: as §4
# Pharbitis purpurea [23] = test: as above; settings: application rate 80 g/ha
# In short: as §4
# Alopecurus myosuroides [24] = test: as above; settings: application rate 80 g/ha, scored visually after about 3 weeks vs untreated controls
# In short: as §4
# Lolium rigidum [25] = test: as above; settings: application rate 80 g/ha, scored visually after about 3 weeks vs untreated controls
# In short: as §4
# Stellaria media [26] = test: as above; settings: application rate 80 g/ha, scored visually after about 3 weeks vs untreated controls
# In short: as §4
# Viola tricolor [27] = test: as above; settings: application rate 80 g/ha
# In short: as §4
# Veronica persica [28] = test: Herbicidal action pre-emergence (greenhouse pot trial); settings: application rate 320 g/ha
# In short: as §1
# Glycine max [29] = test: Crop compatibility post-emergence (greenhouse pot trial); settings: application rate 25 g/ha
# In short: as §2
# Digitaria sanguinalis [30] = test: Herbicidal action pre-emergence (greenhouse pot trial); settings: application rate 80 g/ha
# In short: as §1
# Glycine max [31] = test: Crop compatibility pre-emergence (greenhouse pot trial); settings: application rate 20 g/ha, effect vs untreated controls
# In short: as §3
# Digitaria sanguinalis [32] = test: Herbicidal action post-emergence (greenhouse pot trial); settings: application rate 80 g/ha
# In short: as §4
SMILES,Echinochloa crus-galli (Efficacy in %) (Echinochloa crus-galli [1]) [%],Abutilon theophrasti (Efficacy in %) (Abutilon theophrasti [2]) [%],Amaranthus retroflexus (Efficacy in %) (Amaranthus retroflexus [3]) [%],Setaria viridis (Efficacy in %) (Setaria viridis [4]) [%],Avena fatua (Efficacy in %) (Avena fatua [5]) [%],Hordeum murinum (Efficacy in %) (Hordeum murinum [6]) [%],Matricaria inodora (Efficacy in %) (Matricaria inodora [7]) [%],Pharbitis purpurea (Efficacy in %) (Pharbitis purpurea [8]) [%],Alopecurus myosuroides (Efficacy in %) (Alopecurus myosuroides [9]) [%],Lolium rigidum (Efficacy in %) (Lolium rigidum [10]) [%],Stellaria media (Efficacy in %) (Stellaria media [11]) [%],Viola tricolor (Efficacy in %) (Viola tricolor [12]) [%],Echinochloa crus-galli (Efficacy in %) (Echinochloa crus-galli [15]) [%],Abutilon theophrasti (Efficacy in %) (Abutilon theophrasti [16]) [%],Amaranthus retroflexus (Efficacy in %) (Amaranthus retroflexus [17]) [%],Veronica persica (Efficacy in %) (Veronica persica [18]) [%],Setaria viridis (Efficacy in %) (Setaria viridis [19]) [%],Avena fatua (Efficacy in %) (Avena fatua [20]) [%],Polygonum convolvulus (Efficacy in %) (Polygonum convolvulus) [%],Hordeum murinum (Efficacy in %) (Hordeum murinum [21]) [%],further results
CC(Sc1cc(-n2c(=O)cc(C(F)(F)F)n(C)c2=O)c(F)cc1Cl)C(=O)NCC1CCCO1 (stereo not drawn) [I.1-221],100,100,100,100,100,100,100,100,90,100,100,100,100,100,100,100,100,80,100,80,Cyperus esculentus (Efficacy in %) (Cyperus esculentus): 100%; Zea mays (Efficacy in %) (Zea mays [13]; application rate 5 g/ha): 10%; Oryza sativa (Efficacy in %) (Oryza sativa; application rate 20 g/ha): 0%; Triticum aestivum (Efficacy in %) (Triticum aestivum; application rate 20 g/ha): 20%; Zea mays (Efficacy in %) (Zea mays [14]; application rate 20 g/ha): 0%; Matricaria inodora (Efficacy in %) (Matricaria inodora [22]): 100%; Pharbitis purpurea (Efficacy in %) (Pharbitis purpurea [23]): 100%; Alopecurus myosuroides (Efficacy in %) (Alopecurus myosuroides [24]): 90%; Lolium rigidum (Efficacy in %) (Lolium rigidum [25]): 90%; Stellaria media (Efficacy in %) (Stellaria media [26]): 100%; Viola tricolor (Efficacy in %) (Viola tricolor [27]): 100%
CON(C(=O)C(C)Sc1cc(-n2c(=O)cc(C(F)(F)F)n(C)c2=O)c(F)cc1Cl)C1CCOC1 (stereo not drawn) [I.1-341],100,100,100,100,90,80,100,100,90,100,100,100,100,100,100,100,100,90,100,90,Veronica persica (Efficacy in %) (Veronica persica [28]): 100%; Zea mays (Efficacy in %) (Zea mays [13]; application rate 20 g/ha): 10%; Glycine max (Efficacy in %) (Glycine max [29]): 10%; Oryza sativa (Efficacy in %) (Oryza sativa; application rate 5 g/ha): 10%; Triticum aestivum (Efficacy in %) (Triticum aestivum; application rate 20 g/ha): 10%; Zea mays (Efficacy in %) (Zea mays [14]; application rate 80 g/ha): 0%; Matricaria inodora (Efficacy in %) (Matricaria inodora [22]): 100%; Pharbitis purpurea (Efficacy in %) (Pharbitis purpurea [23]): 100%; Alopecurus myosuroides (Efficacy in %) (Alopecurus myosuroides [24]): 90%; Lolium rigidum (Efficacy in %) (Lolium rigidum [25]): 100%; Stellaria media (Efficacy in %) (Stellaria media [26]): 100%; Viola tricolor (Efficacy in %) (Viola tricolor [27]): 100%
"CCC(Sc1cc(-n2c(=O)cc(C(F)(F)F)n(C)c2=O)c(F)cc1Cl)C(=O)OCC1CCOC1 (stereo not drawn) [I.2-72, Tetrahydrofuran-3-ylmethyl 2-({2-chloro-4-fluoro-5-[3-methyl-2,6-dioxo-4-(trifluoromethyl)-3,6-dihydropyrimidin-1(2H)-yl]phenyl}sulfanyl)butanoate]",100,100,100,100,80,90,100,100,100,90,100,100,100,100,100,100,100,80,100,80,Veronica persica (Efficacy in %) (Veronica persica [28]): 100%; Digitaria sanguinalis (Efficacy in %) (Digitaria sanguinalis [30]): 100%; Oryza sativa (Efficacy in %) (Oryza sativa; application rate 5 g/ha): 20%; Triticum aestivum (Efficacy in %) (Triticum aestivum; application rate 80 g/ha): 20%; Zea mays (Efficacy in %) (Zea mays [14]; application rate 80 g/ha): 10%; Glycine max (Efficacy in %) (Glycine max [31]): 20%; Matricaria inodora (Efficacy in %) (Matricaria inodora [22]): 100%; Pharbitis purpurea (Efficacy in %) (Pharbitis purpurea [23]): 100%; Alopecurus myosuroides (Efficacy in %) (Alopecurus myosuroides [24]): 90%; Lolium rigidum (Efficacy in %) (Lolium rigidum [25]): 80%; Digitaria sanguinalis (Efficacy in %) (Digitaria sanguinalis [32]): 100%; Stellaria media (Efficacy in %) (Stellaria media [26]): 100%; Viola tricolor (Efficacy in %) (Viola tricolor [27]): 100%

# Reference: patent US11497212B2, “Substituted thiophenyl uracils, salts thereof and the use thereof as herbicidal agents” (Syngenta Crop Protection AG, priority 2017, dated 2022)
